The text below walks through data of a melting point compilation (Tetko et al.; mined from patent text by program, amines drawn as free bases though some values may be those of a salt).

The structures appear in SMILES notation.

In the case of `COC(=O)C1=C(C)NC(=O)N(C(=O)OC(C)C)C1c1cccc(Cl)c1Cl` (stereo unspecified), the melting point (as a rule, the temperature, or range, at which the solid turns liquid) was 162 to 163 °C.

As to `CCCCCC(C)C(C)c1cc(O)cc(OC(NC(C)=O)c2ccccc2)c1` (stereo unspecified), the melting point lay within 196 to 199 °C.

Consider `CSc1ccc(Cl)c(C(=O)Nc2ccc(-n3nc(C(F)(F)F)cc3C3CC3)cc2)c1`, for which the melting point fell in the range of 172 to 177 °C.

For the compound `CN1C(=O)C2C3C=CC(CC3)C2S1=O` (stereo unspecified), the melting point is 118 to 120 °C.

In turn, `CN(C)c1cc(C=O)cc(N(C)C)c1N1CCCCC1` displayed a melting point of 114 to 116 °C.

`Fc1ccc(CCN2CCC(N3CCc4ccc(Br)cc43)CC2)cc1` displayed a melting point of 99 to 101 °C.

Turning to `CNC(=O)c1ccccc1Nc1nc(Nc2cccc3c2N(C)CCNC3=O)ncc1Cl`, the melting point fell in the range of 282 to 284 °C.

Take `CC(C)(C)OC(=O)NC(Cc1ccccc1)C(O)CNCC(O)C(Cc1ccc(OCC(=O)N2CCOCC2)cc1)NC(=O)OC(C)(C)C` (stereo unspecified): the melting point fell in the range of 118 to 120 °C.

`Cc1cc(C(C)(C)C(=O)O)ccc1O`: the melting point lay in the range of 145 to 146 °C.

Turning to `Cc1oc(-c2ccccc2)nc1COc1ccccc1C=CC=Cc1nnn[nH]1`, the melting point is 192 to 193 °C.

In the case of `C=CCc1c(O)ccc2ccc(=O)n(CC=C(C)C)c12`, the melting point was in the range of 138 to 142 °C.

Take `CS(=O)c1c(C2(C)NCCS2)nn(-c2c(Cl)cc(C(F)(F)F)cc2Cl)c1N` (stereo unspecified): the melting point worked out at 85 °C.

In turn, `CCCCCCCCCCCCC#CC(F)(CCCCC(=O)O)CCCCC(=O)O` returned a melting point of 98 to 100 °C.

Turning to `CS(=O)(=O)Nc1ccc2c(c1)C(=O)C(Br)CC2` (stereo unspecified), the melting point fell in the range of 87 to 92 °C.

The compound `CC1CCC(N(CC2CCC(CN(C(=O)Nc3ccc(N4CCCCC4)cc3)C3CCC(C)CC3)CC2)C(=O)Nc2ccc(N3CCCCC3)cc2)CC1` (stereo unspecified) showed a melting point of 161 to 165 °C.

In the case of `CN(C)CC1(C2(O)CCCCC2)Cc2cc3ccn(C)c3cc21` (stereo unspecified), the melting point is 148 to 150 °C.

On to `CCCCC(=O)NCc1ccc(C#CCCOCCCCCCNCc2ccccc2)cc1`, for which the melting point fell in the range of 66 to 67 °C.

For `C=C(C)OC(=O)N1C(=O)[C@H](C)Nc2cc(Cl)ccc21`, the melting point lay in the range of 158 to 159 °C.

The compound `COc1nc2ccccc2cc1NC(=S)N1CCN(c2cc(F)cc(F)c2)CC1` returned a melting point of 140 to 142 °C.

As for `Cc1nc(Cc2ccc(NC(=O)/C=C/c3cnn(C)c3-c3ccc(F)cc3)cc2)sc1C`, the melting point was 210 to 211 °C.

With `COCc1ccc2sc(C(=O)OC)c(C)c2c1`, the melting point fell in the range of 88 to 89 °C.

The compound `CSc1ccc(C(=O)Nc2ccc3ccc(Cl)nc3n2)s1` gave a melting point of 235 °C.

On to `CN1CCN(C2=Nc3cc(Br)ccc3-n3ccc4cc(Br)cc2c43)CC1`, for which the melting point fell in the range of 158 to 159 °C.

On to `Cc1cc(CCCCCOc2c(Cl)cc(-c3cccs3)cc2Cl)on1`, for which the melting point is 45 to 47 °C.

`CCOC(=O)c1cnc(-c2ccc(Cl)cc2)nc1-c1ccc(OC)c(OC)c1` returned a melting point of 115 °C.

`CCOC(=O)c1cc(=O)c2c(ccc3nc(C(=O)OC)cc(Cl)c32)o1`: the melting point came to 193 °C.

Take `CCOC(=O)Cc1c(C(=O)OCC)c(C)c(C(=O)c2ccc(Cl)cc2)n1C`: the melting point was 91 to 93 °C.

Turning to `Cc1noc(CCc2c(-c3ccccc3)c(=O)[nH]c3cc(Cl)ccc23)n1`, the melting point lay within 235 to 238 °C.

On to `COc1cc(N(Cc2cncs2)c2ccc(C(=O)O)cc2)ccc1C(N)=O`, for which the melting point is 197 °C.

Regarding `OCc1cnn(-c2ccc(OC(F)(F)F)cc2)c1`, the melting point fell in the range of 73 to 74 °C.

The compound `ClCCOc1ccc(Br)cc1` returned a melting point of 54 to 56 °C.

Regarding `COC(=O)NCC1CC(c2ccccc2)=NO1` (stereo unspecified), the melting point lay in the range of 102 to 103 °C.

`CC1(C)C(C=C(Cl)Cl)C1C(N)=O` (stereo unspecified) registered a melting point of 78 to 81 °C.

In the case of `COCCCn1nnnc1-c1cc(-c2cc(C(C)C)ccc2OC)c(OCc2ccccc2)cc1OCc1ccccc1`, the melting point fell in the range of 102 to 104 °C.

In turn, `OC(CCN1CC=C(c2ccccc2)CC1)c1ccc(Cl)cc1Cl` (stereo unspecified) yielded a melting point of 103 to 104 °C.

In turn, `CCOC(=O)C1=C(C)Nc2nc(N3CCOCC3)nc(N3CCOCC3)c2C1c1ccccn1` (stereo unspecified) yielded a melting point of 226 °C.

`CN=C1N(C)C(=O)CN1c1ccc(Cl)cc1` yielded a melting point of 150 to 152 °C.

Turning to `N#Cc1nn(-c2c(Cl)cc(C(F)(F)F)cc2Cl)c(-n2ccnc2)c1S(=O)(=O)C(F)(F)F`, the melting point lay in the range of 214 to 215 °C.

`COc1nc(C)c(C)nc1NC(=O)N1CCN(c2cc(F)cc(F)c2)CC1` returned a melting point of 153 to 154 °C.

The compound `COc1cc(C(=O)O)ccc1C(C)c1c[nH]c2ccc(C(=O)NCCC(C)C)cc12` (stereo unspecified) displayed a melting point of 190 to 191 °C.

Turning to `O=C(Nc1n[nH]c(=S)s1)NC(CC1CCCCC1)C(=O)NCCc1ccccc1` (stereo unspecified), the melting point is 199 to 200 °C.

Consider `O=C(NO)c1ccc(-c2ccc3nnn(Cc4ccc5ncccc5c4)c3n2)cc1F`, for which the melting point is 180 to 182 °C.

`Fc1cccc(F)c1-c1c(Cl)nc(Cl)n1-c1ccc(Cl)cc1` showed a melting point of 123 to 125 °C.

Regarding `CS(=O)(=O)c1nccc(Cl)n1`, the melting point fell in the range of 91 to 93 °C.

The compound `CCOC(=O)/C=C(C)/C(F)=C/C=C(C)/C=C/c1c(C)cc(OC)c(C)c1Cl` yielded a melting point of 115 to 117 °C.

Regarding `COCC(=O)OCn1cc(C#N)c(-c2cccc(Cl)c2Cl)c1`, the melting point was in the range of 72 to 75 °C.

Take `CCCCCCc1cc2c(s1)-n1c(C)nnc1CN=C2c1cccc(C)c1C`: the melting point lay in the range of 103 to 105 °C.

With `CCOC(=O)COc1cc(-c2nn(C)c(C(F)(F)F)c2Cl)c(F)cc1Cl`, the melting point is 130 to 131 °C.

Consider `COc1cc2c(cc1Br)-c1c(-c3cccs3)c3c(n1CC2)C(=O)N(C)C(C)(C)CC3`, for which the melting point was 173 to 175 °C.

On to `CCCC(C(=O)N(C)C)n1cc(Cl)c(-c2ccccc2)n1` (stereo unspecified), for which the melting point was in the range of 85 to 87 °C.

`CCOC(=O)C1=C(COCc2nnn(CCN3CCN(C(=O)NC)CC3)n2)NC(C)=C(C(=O)OC)C1c1cccc(Cl)c1Cl` (stereo unspecified) showed a melting point of 112 to 114 °C.

In turn, `CCC(=O)NCCC1CCc2c(OC)ccc3ccc(OC)c1c23` (stereo unspecified) registered a melting point of 111 °C.

Compound `Cc1nnc(-c2ccc3ncn(C4CCN(Cc5ccccc5)CC4)c3c2)o1` showed a melting point of 173 to 174 °C.

For the compound `COc1ccc(C(=O)Nc2cc(-c3c(-c4ccc(F)c(C)c4)nc4cccnn34)ccn2)cc1`, the melting point lay in the range of 222 to 223 °C.

Regarding `COC(=O)[C@H](Cc1ccc(NC(=O)c2c(Cl)cccc2Cl)cc1)NC(=O)c1c(C)cccc1Cl`, the melting point lay in the range of 244 to 245 °C.

The compound `COc1ccc(N2CCN(c3c(C)c(C)c4c(c3C)CC3(CCOCC3)O4)CC2)cc1` came in with a melting point of 153 to 155 °C.

In the case of `COc1cc(C(O)c2cccs2)cc([N+](=O)[O-])c1OC` (stereo unspecified), the melting point fell in the range of 79 to 81 °C.

The compound `C=C(C)C1CCC2C3C=CC4=CC(=O)CCC4(C)C3C(O)CC12C` (stereo unspecified) yielded a melting point of 153 to 155 °C.

`CC(C)n1nc(-c2c(OCCN(C)C)nc(N)nc2-c2ccccc2)ccc1=O` yielded a melting point of 130 to 132 °C.

Compound `CON(Cc1ccc(C)c(F)c1)C(=O)C1=C(O)C(=O)N(C)C1` registered a melting point of 145 °C.

In the case of `COC(=O)CC=CC=CC=CC=CC=Cc1ccsc1`, the melting point was in the range of 206 to 208 °C.

`O=C(NNc1ccccc1)c1ccc(F)cc1` came in with a melting point of 181 to 186 °C.

Take `C=C(Cl)c1c(C(F)(F)F)nc(C)[nH]c1=O`: the melting point fell in the range of 164 to 166 °C.

The compound `CCOc1nn(Cc2ccc(OC3CCN(c4ccccn4)CC3)cc2)cc1CCC(=O)O` had a melting point of 142 to 143 °C.

As to `CON(Cc1ccc(F)cc1Cl)C(=O)C1=C(O)C(=O)N(C)C1`, the melting point lay in the range of 152 to 155 °C.

In turn, `O=c1ccc(-c2ccc(O)cc2)cn1Cc1ccc(Cl)cc1F` registered a melting point of 207 °C.

As for `O=C(NC(CS)Cc1ccccc1)N1CCN(c2ccc(Cl)cc2)CC1` (single isomer, unassigned; (+)), the melting point was 148 °C.

Consider `ClCCOc1cccc2c1OCCO2`, for which the melting point is 73 °C.

In turn, `O=c1c2c([nH]c3nc(N4CCCCC4)nn13)CCCS2` displayed a melting point of more than 350 °C.

`CC(C)(C)c1cc(SC2CC(=O)N(c3ccc(N4C(=O)CC(Sc5cc(C(C)(C)C)c(O)c(C(C)(C)C)c5)C4=O)cc3)C2=O)cc(C(C)(C)C)c1O` (stereo unspecified) had a melting point of 274 to 278 °C.

On to `Cn1c(COc2ccc(CC3SC(=O)NC3=O)cc2)nc2ccc(Oc3ccc4cccc(NC(=O)Nc5ccc(F)cc5F)c4c3)cc21` (stereo unspecified), for which the melting point was in the range of 222 to 224 °C.

`CC#CCOc1cc(N(C)c2ccccc2)ncn1` had a melting point of 57.6 °C.

As for `C#CC[C@@H](NCCCNC(=O)OCc1ccccc1)c1nc2cc(Cl)ccc2c(=O)n1Nc1ccccc1`, the melting point lay within 63 to 65 °C.

Compound `CCCC(=O)OCC(=O)c1ccc(-c2ccccc2)cc1` registered a melting point of 82 °C.

For `Cc1oc(-c2ccccc2)nc1COc1ccc(Cn2cc(CC(=O)O)c(-c3cccs3)n2)cc1`, the melting point was 98 to 99 °C.

In turn, `CCOCC(=O)Nc1ncc(Br)s1` registered a melting point of 100 to 102 °C.

The compound `CC(C)CCOCc1cc(-n2nc(C(N)=O)nc2-c2ccccc2F)ccc1Cl` showed a melting point of 113 to 115 °C.

`CCCCCCCN(CCC(C)(C)CCSc1nc(-c2ccccc2)c(-c2ccccc2)[nH]1)C(=O)Nc1ccc(F)cc1F`: the melting point was in the range of 138 to 139 °C.

For `Cc1cc(C#N)cc2c(=O)oc(-c3cc(Br)nn3-c3ncccc3Cl)nc12`, the melting point fell in the range of 263 to 267 °C.

Consider `Cn1ncc2c1-c1c(Oc3ccc(OCc4ccc5ccccc5n4)cc3)sc(C(N)=O)c1CC2`, for which the melting point was 139 to 140 °C.

As for `Nc1cc(Cl)cnc1F`, the melting point amounted to 74 °C.

`O=C(O)c1ccc(OC(F)(F)F)c(Cl)c1`: the melting point fell in the range of 110 to 112 °C.

Regarding `O=C(NC(=O)c1c(Cl)cccc1Cl)Nc1cc(-c2ccc(C(F)(F)F)cc2)on1`, the melting point was in the range of 227 to 230 °C.

Turning to `COC(=O)c1ccc(C2c3[nH]c4ccccc4c3CCN2C(=O)C=Cc2cccc(C(=O)OC)c2)cc1` (stereo unspecified), the melting point was determined as 182 °C.

As for `COC(=O)c1ccc(CSc2nnc(-c3ccc4c(c3)CCO4)o2)cc1`, the melting point lay within 125 to 126 °C.

Consider `Cc1cncn1Cc1nc2ccccc2n1-c1ccccc1`, for which the melting point is 100 to 102 °C.
